Laboratory results as given in paper PMC6980506, “Comparative pharmacokinetics and pharmacodynamics of the advanced Retinol-Binding Protein 4 antagonist in dog and cynomolgus monkey” (PLoS ONE, 2020).

Assay: Metabolic stability in human liver microsomes
Format: in vitro ADME
Conditions: both sexes, pH 7.4, 1 mg/mL, read-out: Microsomal Stability (% Remaining at 30 min)
Experimental: All measurements were done in duplicate. Pooled mixed gender human donor microsomes, male beagle dog microsomes and male cynomolgus monkey were obtained from BioIVT (Baltimore, MD). […] A mixture containing 50 mM potassium phosphate buffer pH 7.4 and 1 mg/mL liver microsomes was pre-warmed for 10 min at 37°C in a shaking water bath, followed by the addition of test compound. Final DMSO concentration in the reaction mix was 0.1%. […] The final volume of the reaction mixture was 800 μL, containing 1 mg/mL liver microsomes, and 1 μM test compound. Aliquots (100 μL) of reaction mixtures were removed from the incubation plate at pre-defined timepoints and mixed with 150 μL of ice-cold acetonitrile, incubated on ice for 15 min, and samples were centrifuged (3,600 rpm, 10 min, 4°C) to precipitate protein. The supernatants were diluted 1:1 (v/v) with water containing the internal standard and subjected to the LC/MS analysis.

remaining at 0.5 h, 1 μM: 94%
SMILES: Cc1cc(C(=O)O)nc(N2C[C@H]3C[C@@H](c4ccccc4C(F)(F)F)C[C@H]3C2)n1 [BPN-14136]
